Earlier results in patent US11136251B2, “Compositions, methods, and devices for capturing phosphate from water” (REGENTS OF THE UNIVERSITY OF MINNESOTA, priority 2017, dated 2021).

Question: For `O=C([O-])CN(CCN(CC(=O)[O-])CC(=O)O)CCN(CC(=O)[O-])CC(=O)O.[Gd+3]` [Gd-DTPA], which “selectivity for HPO4^2− over HCO3^− / bicarbonate binding” value is on record?
Answer: two-fold
